Results reported in patent US20240368115A1, “REGULATOR CONTAINING TRICYCLIC DERIVATIVE, PREPARATION METHOD THEREFOR AND APPLICATION THEREOF” (SHUJING BIOPHARMA CO., LTD, priority 2021, published 2024).

How the values were obtained:
Type in all cases: cell-based
D2L receptor = target: T1, D2L receptor (Homo sapiens, UniProt P14416); assay: D2L receptor cAMP agonist test; settings: HEK293 cell strain stably expressing D2L receptor; for EC50: cAMP, forskolin 0.5 μM; for D2L Max Act %: positive control dopamine 1 μM
T1 construct: expressed in transfected cells
Description: (§1) • cAMP detection kit was purchased from Cisbio; an HEK293 cell strain stably expressing D2L receptor was constructed by Shanghai Shujing Biopharma Co., Ltd.; dopamine, forskolin, and IBMX were purchased from Sigma; ProxiPlate-384 well plates were purchased from PerkinElmer; HBSS was purchased from Thermo Fisher Scientific.
• (1) The cryopreserved cells were thawed in a water bath at 37° C., the cell suspension was resuspended in HBSS buffer, and the mixed solution was centrifuged at 750 rpm for 5 min to remove the medium. The pellet was resuspended in an appropriate amount of experimental buffer, and an appropriate amount of cell suspension was diluted to 0.4×10^6 cells/mL. • (2) 5 μL of cell suspension was added to a ProxiPlate-384 well plate (2×10^3 cells/well), and the plate was centrifuged at 1000 rpm for 1 min. • (3) Test compounds were serially diluted in an experimental buffer, and 5 μL of the mixed solution was transferred to the reaction plate with Bravo.

5-HT1A receptor = target: T2, 5-HT1A receptor (Homo sapiens, UniProt P08908); assay: 5-HT1A receptor cAMP agonist test; settings: HEK293 cell strain stably expressing 5-HT1A receptor; for EC50: cAMP, forskolin 2.5×10^−7 M; for 5-HT1A Max Act %: positive control serotonin 10^−6 M
T2 construct: expressed in transfected cells
T2 sequence (P08908 1-422): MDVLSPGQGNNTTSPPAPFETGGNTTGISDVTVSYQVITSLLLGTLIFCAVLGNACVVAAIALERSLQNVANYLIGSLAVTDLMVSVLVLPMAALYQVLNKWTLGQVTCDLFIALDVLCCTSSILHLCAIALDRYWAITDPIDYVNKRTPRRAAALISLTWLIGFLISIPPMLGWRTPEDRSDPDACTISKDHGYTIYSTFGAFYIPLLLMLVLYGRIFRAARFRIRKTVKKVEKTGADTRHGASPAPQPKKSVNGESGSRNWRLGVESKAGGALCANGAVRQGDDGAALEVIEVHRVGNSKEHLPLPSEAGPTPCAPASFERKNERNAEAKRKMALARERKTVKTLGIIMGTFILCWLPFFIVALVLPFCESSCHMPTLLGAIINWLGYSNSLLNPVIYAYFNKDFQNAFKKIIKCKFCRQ
From the text: as §1, with “5-HT1A” for “D2L”, “serotonin,” for “dopamine,”
(§2) • (1) The cultured cells were digested with trypsin, and the cell suspension was washed with HBSS buffer after the digestion was terminated. The medium was removed by centrifugation at 200×g. The pellet was resuspended in an appropriate amount of experimental buffer, and 20 μL of cell suspension was counted using a cell counter and diluted to 0.4×10^6 cells/mL. • (2) 5 μL of cell suspension was added to a ProxiPlate-384 well plate (2×10^3 cells/well). • (3) Test compounds were serially diluted in an experimental buffer, and 5 μL of the mixed solution was transferred to the reaction plate with Bravo.

D2S receptor = target: T3, D2S receptor (Homo sapiens, UniProt P14416); assay: D2S receptor cAMP agonist test; settings: HEK293 cell strain stably expressing D2S receptor; for EC50: cAMP, forskolin 5×10^−7 M; for D2S Max Act %: positive control dopamine 1×10^−7 M
T3 construct: expressed in transfected cells
From the text: as §1, with “cAMP” for “• cAMP”, “D2S” for “D2L”
as §2, with “0.6×10^6” for “0.4×10^6”, “(3×10^3” for “(2×10^3”

5-HT2A receptor = 5-HT2A receptor (Homo sapiens, UniProt P28223); assay: Calcium flux test for 5-HT2A receptor; settings: CHO cell strain stably expressing 5-HT2A receptor; for IC50: calcium flux, antagonism of serotonin; for 5-HT2A Max Inh %: positive control ketanserin 10^−7 M
Description: • Fluo-4 calcium flux detection kit was purchased from Invitrogen; a CHO cell strain stably expressing 5-HT2A receptor was purchased from PerkinElmer; serotonin was purchased from Sigma; ketanserin was purchased from Targetmol; polylysine-coated 384-well plates and 384-well compound plates were purchased from Greiner Bio-One. Molecular Device FLIPR, Agilent Bravo liquid workstation, and Countstar BioTech cell counter.
• (1) The cryopreserved cells were rapidly thawed in a water bath at 37° C., and the cells were resuspended in a plating medium. The cryopreservation solution was removed by centrifugation at 200×g. The pellet was resuspended in an appropriate amount of plating medium, 20 μL of cell suspension was counted using a cell counter, and the cell density was diluted to 1×10^6 cells/mL. • (2) 20 μL of cell suspension was added to a polylysine-coated 384-well plate (2×10^4 cells/well). • (3) The cell plate was incubated in a 37° C./5% CO2 incubator for 16-20 h.
• (1) The cell plate was taken out from the incubator and centrifuged at 100×g to remove the medium. 20 μL of experimental buffer was added, and then 20 μL of 2× fluorescent probe solution was added. […] The cell plate and agonist positive compound plate were placed into the FLIPR instrument, the detection program was run, 10 μL of the diluted compound was transferred from the agonist compound plate to the cell plate, and the fluorescence signal was read. […] The cell plate and test compound plate were placed in the FLIPR instrument, the detection program was run, and 10 μL of the diluted compound was transferred from the test compound plate to the cell plate. […] The test compound plate was then taken out, and the agonist positive compound plate with 6×EC50 concentration was placed.
Inhibition rate (Inhibition %)=(negative control reading value−compound reading value)/(negative control reading value−positive control reading value)×100%

5-HT2A receptor, sequence (P28223 whole entry): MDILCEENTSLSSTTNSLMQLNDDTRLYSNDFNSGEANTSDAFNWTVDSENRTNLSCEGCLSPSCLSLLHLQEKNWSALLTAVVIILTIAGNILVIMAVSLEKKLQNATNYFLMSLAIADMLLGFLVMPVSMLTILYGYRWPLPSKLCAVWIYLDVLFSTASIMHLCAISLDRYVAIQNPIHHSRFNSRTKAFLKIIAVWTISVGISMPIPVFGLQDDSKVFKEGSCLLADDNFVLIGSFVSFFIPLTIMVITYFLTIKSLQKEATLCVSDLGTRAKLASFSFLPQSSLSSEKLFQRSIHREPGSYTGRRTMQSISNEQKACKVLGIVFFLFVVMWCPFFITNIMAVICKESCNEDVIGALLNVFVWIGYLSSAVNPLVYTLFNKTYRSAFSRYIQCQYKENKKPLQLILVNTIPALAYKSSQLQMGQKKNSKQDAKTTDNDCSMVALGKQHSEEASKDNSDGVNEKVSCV
T1 sequence (P14416 whole entry): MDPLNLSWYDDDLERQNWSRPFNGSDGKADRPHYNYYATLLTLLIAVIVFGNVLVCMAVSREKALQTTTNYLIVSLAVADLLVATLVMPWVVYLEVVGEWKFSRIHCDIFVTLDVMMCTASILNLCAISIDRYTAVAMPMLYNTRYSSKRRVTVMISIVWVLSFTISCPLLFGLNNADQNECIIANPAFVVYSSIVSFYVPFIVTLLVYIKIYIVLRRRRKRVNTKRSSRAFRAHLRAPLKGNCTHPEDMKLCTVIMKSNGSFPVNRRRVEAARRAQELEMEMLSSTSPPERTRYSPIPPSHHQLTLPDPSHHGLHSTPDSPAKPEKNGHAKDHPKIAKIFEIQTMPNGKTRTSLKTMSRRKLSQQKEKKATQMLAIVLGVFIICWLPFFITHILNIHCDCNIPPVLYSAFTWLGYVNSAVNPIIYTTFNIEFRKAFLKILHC
T3 sequence (P14416 1-414 isoform P14416-2): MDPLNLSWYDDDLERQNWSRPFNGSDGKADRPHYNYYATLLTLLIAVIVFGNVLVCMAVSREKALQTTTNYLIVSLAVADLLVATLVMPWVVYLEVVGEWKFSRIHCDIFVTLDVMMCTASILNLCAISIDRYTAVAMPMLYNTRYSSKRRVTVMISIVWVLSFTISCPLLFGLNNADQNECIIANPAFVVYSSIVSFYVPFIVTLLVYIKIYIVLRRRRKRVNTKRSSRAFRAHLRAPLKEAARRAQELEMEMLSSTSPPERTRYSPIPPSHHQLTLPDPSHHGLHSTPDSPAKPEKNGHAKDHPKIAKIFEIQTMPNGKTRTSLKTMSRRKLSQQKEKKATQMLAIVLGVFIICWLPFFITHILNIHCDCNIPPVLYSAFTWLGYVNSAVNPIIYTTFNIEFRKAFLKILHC

SMILES | EC50 (D2L receptor) | D2L Max Act % (D2L receptor) | EC50 (5-HT1A receptor) | 5-HT1A Max Act % (5-HT1A receptor) | EC50 (D2S receptor) | D2S Max Act % (D2S receptor) | IC50 (5-HT2A receptor) | 5-HT2A Max Inh % (5-HT2A receptor)
O=C1Nc2cc(OCCCCN3CCN(c4cccc5c4CCC5)CC3)ccc2C2CC12 (single isomer, unassigned) [Example 43-P1] | 0.9 nM | 37.9% | 194 nM | 68.3% | 1.3 nM | 123.1% | 853 nM | 100.7%
O=C1Nc2cc(OCCCCN3CCN(c4cccc5c4CCC5)CC3)ccc2C2CC12 (single isomer, unassigned) [Example 43-P2] | 0.25 nM | 35.7% | 92.4 nM | 60.6% | 0.92 nM | 125.3% | 1130 nM | 96.6%
O=C1Nc2cc(OCCCCN3CCN(c4cccc5c4OCC5)CC3)ccc2C2CC12 (single isomer, unassigned) [Example 44-P1] | 0.26 nM | 45.9% | 12.7 nM | 49.5% | 0.98 nM | 96.8% | 192 nM | 99.6%
O=C1Nc2cc(OCCCCN3CCN(c4cccc5c4OCC5)CC3)ccc2C2CC12 (single isomer, unassigned) [Example 44-P2] | 0.22 nM | 53.9% | 7.05 nM | 48.0% | 0.92 nM | 89.1% | 290 nM | 99.7%
O=C1Nc2cc(OCCCCN3CCN(c4cccc(O)c4Cl)CC3)ccc2C2CC12 (stereo not drawn) [Example 38, 5-(4-(4-(2-Chloro-3-hydroxyphenyl)piperazin-1-yl)butoxy)-1,1a,3,7b-tetrahydro-2H-cyclopropa[c]quinolin-2-one] | 1.39 nM | 32.3% | – | – | 0.88 nM | 92.4% | 4850 nM | 98.1%
O=C1Nc2cc(OCCCCN3CCN(c4cccc(Cl)c4O)CC3)ccc2C2CC12 (stereo not drawn) [Example 39, 5-(4-(4-(3-Chloro-2-hydroxyphenyl)piperazin-1-yl)butoxy)-1,1a,3,7b-tetrahydro-2H-cyclopropa[c]quinolin-2-one] | – | – | – | – | – | – | 2930 nM | 94.2%
O=C1Nc2cc(OCCCCN3CCN(c4cccc5c4CCC5)CC3)ccc2C2CC12 (stereo not drawn) [Example 43, 5-(4-(4-(2,3-Dihydro-1H-inden-4-yl)piperazin-1-yl)butoxy)-1,1a,3,7b-tetrahydro-2H-cyclopropa[c]quinolin-2-one] | 0.3 nM | 42.8% | 158 nM | 67.7% | 0.92 nM | 134.9% | 971 nM | 100.3%
O=C1Nc2cc(OCCCCN3CCN(c4cccc5c4OCC5)CC3)ccc2C2CC12 (stereo not drawn) [Example 44, 5-(4-(4-(2,3-Dihydrobenzofuran-7-yl)piperazin-1-yl)butoxy)-1,1a,3,7b-tetrahydro-2H-cyclopropa[c]quinolin-2-one] | 0.37 nM | 44.7% | 11.2 nM | 58.9% | 0.93 nM | 91.0% | 260 nM | 99.7%
O=C1Nc2cc(OCCCCN3CCN(c4cccc5c4CC(F)(F)C5=O)CC3)ccc2C2CC12 (stereo not drawn) [Example 47, 5-(4-(4-(2,2-difluoro-1-one-2,3-dihydro-1H-inden-4-yl)piperazin-1-yl)butoxy)-1,1a,3,7b-tetrahydro-2H-cyclopropa[c]quinolin-2-one] | 0.84 nM | 35.9% | 207 nM | 75.8% | 0.97 nM | 102.9% | 268 nM | 96.0%
O=C1Nc2cc(OCCCCN3CCN(c4cccc5ccsc45)CC3)ccc2C2CC12 (stereo not drawn) [Example 48, 5-(4-(4-(Benzo[b]thiophen-7-yl)piperazin-1-yl)butoxy)-1,1a,3,7b-tetrahydro-2H-cyclopropa[c]quinolin-2-one] | 0.49 nM | 49.0% | 366 nM | 55.2% | 0.89 nM | 114.8% | 2410 nM | 100.5%
O=C1Nc2cc(OCCCCN3CCN(c4ccc(Cl)s4)CC3)ccc2C2CC12 (stereo not drawn) [Example 51] | 1.53 nM | 82.6% | 73.4 nM | 79.4% | 0.76 nM | 111.1% | 2530 nM | 99.8%
O=C1Nc2cc(OCCCCN3CCN(c4cccc5[nH]ccc45)CC3)ccc2C2CC12 (stereo not drawn) [Example 52, 5-(4-(4-(1H-Indol-4-yl)piperazin-1-yl)butoxy)-1,1a,3,7b-tetrahydro-2H-cyclopropa[c]quinolin-2-one] | 0.31 nM | 65.3% | – | – | – | – | 1590 nM | 99.9%
